Assay results as given in patent US20170137481A1, “Use of Cell-Permeable Peptide Inhibitors of the JNK Signal Transduction Pathway for the Treatment of Various Diseases” (Xigen Inflammation Ltd., priority 2014, published 2017).

Key:
[1] = tested on: rat model of diabetic nephropathy; experiment: STZ rat model of diabetic nephropathy, chronic administration; type: in vivo; details: XG-102 1, 2, 4 mg/kg iv weekly; Losartan 25 mg/kg po daily
Excerpt: Losartan has been used as a positive control. Seventy-four male Sprague-Dawley rats (200-250 g; including 4 spare animals) from Charles River (Margate, Kent) were used. […] The diet has been purchased from Research Diets, New Jersey, USA. […] Animals have been housed in pairs throughout the study. […] During the third week of habituation, a blood sample has been taken from the lateral tail vein in the freely fed state using a hand-held glucose meter (One Touch Ultra 2). Blood sampling began at approximately 09:00. […] About 40 animals have been assigned to Cohort A and the remaining 30 to Cohort B, balanced as far as possible for body weight, plasma glucose and food and water intake. […] In all groups, food and water intake have been determined twice weekly (on the day of iv dosing and on water refill days. Blood glucose has been determined monthly. Samples were collected as detailed previously by glucometer (One Touch Ultra2). Blood samples have been taken in the freely fed state (beginning at approx. 09:00). Animals have been dosed immediately afterwards by the respective route to a timed schedule. Subsequent to dosing, each animal has been placed in a metabolism cage with free access to food and water for a 24 h period. To reduce evaporation, the glass urine collectors have been placed in a polystyrene container (Sca-online, UK) which was filled with ice. […]

[2] = tested on: gerbil model of transient global ischemia; details: cited from earlier work
[3] = tested on: primary embryonic cultures and differentiated PC12 cells; details: after trophic withdrawal; cited from earlier work

CCCCc1nc(Cl)c(CO)n1Cc1ccc(-c2ccccc2-c2nn[nH]n2)cc1 [Losartan]
body weight versus vehicle-treated STZ rats [1]: significantly lower

N#CC(c1ccnc(NCCc2cccnc2)n1)c1nc2ccccc2s1 (stereo not drawn) [AS601245]
delayed loss of hippocampal CA1 neurons [2]: significant protection against the delayed loss of hippocampal CA1 neurons

CCSCc1ccc2c(c1)c1c3c(c4c5cc(CSCC)ccc5n5c4c1n2[C@H]1C[C@](O)(C(=O)OC)[C@]5(C)O1)CNC3=O [CEP-1347]
neuronal survival [3]: promotes neuronal survival
